Measurements reported in US20080234132A1, “Microcin B17 Analogs And Methods For Their Preparation And Use” (priority 2004, published 2008).
Values after ≈ are worked out from the molar mass of the structure shown. *1 amine or outer side, *2 acyl side, *3 side chain or, on linkers, in order; H or OH if unused. Where a SMILES comes first, the peptide text is derived from it. [ ]: non-standard residue; d: D form. X2 = O=C(c1c[nH]c(CN[*:1])c1)[*:2]

Key:
[1] = test system: Arabidopsis thaliana ecotype Columbia plants; test: Effects on whole plants/seedlings, Arabidopsis thaliana; format: in vivo
Text: (§1) The leaf tissue initially turned yellow, followed by rapid necrosis of the tissue (see FIG. 32). […] The high hydrophility of Peptide 1 may preferentially allow the compound to readily diffuse through the leaf cuticle and epidermis to the mesophyll and phloem below.
(§2) The heterocyclic compounds were also spotted onto the leaves of 4 week old, tissue culture grown Arabidopsis thaliana ecotype Columbia plants (see FIG. 34, panels A-1). […] The browning and necrosis diffused through the full thickness of the leaf over the next 60 minutes (see FIG. 34, panel F) and spread towards the meristem (see FIG. 34, panels E, F, H). Complete necrosis of the meristem and newly emerged leaves, where organellar replication takes place, was complete within 24 hours (see FIG. 34, panel F).

[2] = target: DNA gyrase (MG 1655 A2B2) (Escherichia coli, UniProt P0AES4+P0AES6); test: biochemical; parameters: species or system E. coli
Description: GyrA and GyrB were added to a solution containing 35 mM Tris.HCl (pH, 7.5), 24 mM KCl, 4 mM MgCl2, 1.8 mM spermidine, 6.5% glycerol, 0.36 mg/mL BSA, 9 μg/mL tRNA, 5 mM DTT, 2 mM ATP and 24 nM relaxed pBR322 DNA. […] The reactions were incubated at 25° C., and at each time point 30-μl aliquots were quenched with 1 μL of 10% SDS. An equal volume of chloroform/isoamyl alcohol (24:1) and a half volume of loading buffer STEB (40% sucrose/100 mM Tris.HCl, pH 7.5/100 mM EDTA/2 mg/ml bromophenol blue) were added, and the mixtures then were vortexed and centrifuged for 1 min at 13,000 rpm. The aqueous phase was loaded onto 1% agarose, TAE (40 mM Tris-acetate, 1 mM EDTA) gels and were run at either 30 V overnight in TAE (in the cold room) or 70 V for 2.5 hours. The gels were stained for about 20 min in TAE containing 1 μg/ml ethidium bromide followed by destaining in multiple washes of TAE.

[3] = target: DNA gyrase (Escherichia coli, UniProt P0AES4+P0AES6); format: biochemical, E. coli
Description: GyrA and GyrB were added to solutions containing 35 mM Tris.HCl (pH, 7.5), 24 mM KCl, 4 mM MgCl2, 1.8 mM spermidine, 6.5% glycerol, 0.36 mg/mL BSA, 9 μg/mL tRNA, 5 mM DTT, 2 mM ATP and 10 nM relaxed pBR322 DNA. […] The reactions were incubated at 25° C., and at each time point 30-μl aliquots were quenched with 1 μL of 10% SDS and 2 μL of 2 mg/ml proteinase K. Quenched aliquots were kept on ice until the experiment was completed, at which time they were incubated at 37° C. for half an hour. An equal volume of chloroform/isoamyl alcohol (24:1) and a half volume of loading buffer STEB (40% sucrose/100 mM Tris HCl, pH 7.5/1 mM EDTA/2 mg/ml bromophenol blue) were added, and the mixtures then were vortexed and centrifuged for 1 min at 13,000 rpm. The aqueous phase was loaded onto 1% agarose, TAE (40 mM Tris-acetate, 1 mM EDTA) gels that contained 1 μg/ml ethidium bromide and were run at either 30 V overnight in TAE containing 1 μg/ml ethidium bromide (in the cold room) or 70 V for 2.5 hours in TAE containing 1 μg/ml ethidium bromide.

[4] = Solubility; details: water
[5] = test system: Arabidopsis thaliana ecotype Columbia seeds; test: Seed germination, Arabidopsis thaliana; format: in vivo; details: three week period
Text: Germination begins when the dormant dry seed begins to take up water (imbibition from the surface sterilization process). Primary roots emerge while the seed is in the culture media. Subsequently the hypocotyls emerge and elongate to pull the cotyledons above the culture media surface. After straightening up, the cotyledons arrange into an horizontal position, as shown in the Figure, and, then spread apart in order to expose the first true leaves and the apical meristem (growing tip).
(§3) The microcin derivatives were tested for efficacy in planta against Arabidopsis thaliana ecotype Columbia according to known methods (see Wall et al., 2004). Seeds were germinated on sterile media containing the appropriate peptide and the effects were observed over a three week period. […] In […] seeds, such as A. thaliana, during imbibition the quiescent seed rapidly resumes metabolic and respiratory activity. One of the first steps, as part of this process, is the initiation of mitochondrial DNA synthesis which requires DNA gyrase and which may explain the exquisite sensitivity of the germinating seeds to Peptides 1 and 2.

[6] = test system: A. thaliana ecotype Columbia seeds; test: Seed germination of A. thaliana; format: in vivo, Arabidopsis thaliana
[7] = test system: Arabidopsis thaliana ecotype Columbia plants; test: Effects on A. thaliana seedlings and plants; format: in vivo
Description: as §3, §1, §2

[8] = test system: E. coli MG1655; test: Halo assay, wild-type E. coli MG1655; format: cell-based
Description: Lawns of cells were prepared by spreading, on top of a LB+Agar plate, 3 ml of melted LSS medium (half-agar strength: 0.3 g Agar/50 ml LB) inoculated with 100 μl of a 10 ml LB overnight culture of E. coli cells grown at 37° C. […] The plates were incubated at 37° C. overnight and growth inhibition was qualitatively analysed by measuring the diameter of each halo.

[9] = target: DNA gyrase A2B2 (Escherichia coli, UniProt P0AES4+P0AES6); test: biochemical; format: biochemical, E. coli
Description: Relaxation assays were performed in a manner analogous to that described by Pierrat et al., 2005. Briefly, relaxation assays were performed as for the supercoiling assay but with some modifications: ATP and spermidine were omitted. Gyr A and Gyr B were added to a solutions containing 35 mM of Tris.HCl (pH=7.5), 24 mM of KCl, 4 mM of MgCl2, 1.8 mg/mL of spermidine, 6.5% of glycerol, 0.36 mg/mL of BSA, 9 μg/mL of tRNA, 5 mM of DTT, 2 mM of ATP and 24 nM of relaxed pBR322 DNA. […] The amount of DMSO was kept constant at 3.33%. The reactions were incubated at 25° C., and at each time point 30 μL aliquots were quenched with the addition of an equal volume of chloroform/isoamyl alcohol (24:1) and a half volume of loading buffer STEB (40% sucrose/100 mM Tris HCl, pH 7.5/100 mM EDTA/2 mg/mL bromophenol blue). The mixtures then were vortexed and centrifuged for 1 minute at 13,000 rpm. The aqueous phase was loaded onto 1% agarose, TAE (40 mM Tris-acetate, 1 mM EDTA) gels and were run at either 30 V overnight in TAE (in the cold room) or 70 V for 2.5 hours in TAE. The gels were stained for about 20 minutes in TAE containing 1 μg/mL ethidium bromide followed by destaining in multiple washes of TAE. The data were analysed using Syngel software.

[10] = test system: HT-29 cells; test: MTT cell viability assay, HT-29; format: cell-based, human; details: Homo sapiens, HT-29; 24 hours, MTT; read-out: In vivo HT29 Cells, approximate IC50
Description: (§4) Human cell cultures were initiated from frozen cell stocks (the gift of Dr J. Gavrilovic, UEA). […] Both human cell lines form adherent cultures and were maintained at 37° C. in T25 culture vessels as 10 mL cultures in CO2 Independent Media containing 10% foetal bovine serum (EU approved), 4 mM L-glutamine, penicillin/streptomycin (Invitrogen). […] Media was renewed every three days.
(§5) After incubation with MTT and solubilization, the resulting coloured solution is quantified using a scanning spectrophotometer. […] Cell viability was then determined by addition of MTT reagent (20 μL) in each well, as per manufacturer's instructions and incubated for a further 4 hours. Solubilization solution (100 μL) was added per well and the plates incubated overnight at 37° C. The plates were read in a spectrophotometer (scanning from 500-650 nm, signal peak at 570 nm).

[11] = test system: HeLa cells; test: MTT cell viability assay, HeLa; format: cell-based, human; details: Homo sapiens, HeLa; 24 hours, MTT; read-out: In vivo HeLa Cells, approximate IC50
Description: as §4, §5

[12] = target: Human topoisomerase IIα (Homo sapiens, UniProt P11388); test: Human topoisomerase IIα-mediated relaxation assay; format: biochemical; parameters: purchased TopoGEN Inc; details: topoisomerase assays (FIG. 27)
Human topoisomerase IIα, sequence (P11388 whole entry): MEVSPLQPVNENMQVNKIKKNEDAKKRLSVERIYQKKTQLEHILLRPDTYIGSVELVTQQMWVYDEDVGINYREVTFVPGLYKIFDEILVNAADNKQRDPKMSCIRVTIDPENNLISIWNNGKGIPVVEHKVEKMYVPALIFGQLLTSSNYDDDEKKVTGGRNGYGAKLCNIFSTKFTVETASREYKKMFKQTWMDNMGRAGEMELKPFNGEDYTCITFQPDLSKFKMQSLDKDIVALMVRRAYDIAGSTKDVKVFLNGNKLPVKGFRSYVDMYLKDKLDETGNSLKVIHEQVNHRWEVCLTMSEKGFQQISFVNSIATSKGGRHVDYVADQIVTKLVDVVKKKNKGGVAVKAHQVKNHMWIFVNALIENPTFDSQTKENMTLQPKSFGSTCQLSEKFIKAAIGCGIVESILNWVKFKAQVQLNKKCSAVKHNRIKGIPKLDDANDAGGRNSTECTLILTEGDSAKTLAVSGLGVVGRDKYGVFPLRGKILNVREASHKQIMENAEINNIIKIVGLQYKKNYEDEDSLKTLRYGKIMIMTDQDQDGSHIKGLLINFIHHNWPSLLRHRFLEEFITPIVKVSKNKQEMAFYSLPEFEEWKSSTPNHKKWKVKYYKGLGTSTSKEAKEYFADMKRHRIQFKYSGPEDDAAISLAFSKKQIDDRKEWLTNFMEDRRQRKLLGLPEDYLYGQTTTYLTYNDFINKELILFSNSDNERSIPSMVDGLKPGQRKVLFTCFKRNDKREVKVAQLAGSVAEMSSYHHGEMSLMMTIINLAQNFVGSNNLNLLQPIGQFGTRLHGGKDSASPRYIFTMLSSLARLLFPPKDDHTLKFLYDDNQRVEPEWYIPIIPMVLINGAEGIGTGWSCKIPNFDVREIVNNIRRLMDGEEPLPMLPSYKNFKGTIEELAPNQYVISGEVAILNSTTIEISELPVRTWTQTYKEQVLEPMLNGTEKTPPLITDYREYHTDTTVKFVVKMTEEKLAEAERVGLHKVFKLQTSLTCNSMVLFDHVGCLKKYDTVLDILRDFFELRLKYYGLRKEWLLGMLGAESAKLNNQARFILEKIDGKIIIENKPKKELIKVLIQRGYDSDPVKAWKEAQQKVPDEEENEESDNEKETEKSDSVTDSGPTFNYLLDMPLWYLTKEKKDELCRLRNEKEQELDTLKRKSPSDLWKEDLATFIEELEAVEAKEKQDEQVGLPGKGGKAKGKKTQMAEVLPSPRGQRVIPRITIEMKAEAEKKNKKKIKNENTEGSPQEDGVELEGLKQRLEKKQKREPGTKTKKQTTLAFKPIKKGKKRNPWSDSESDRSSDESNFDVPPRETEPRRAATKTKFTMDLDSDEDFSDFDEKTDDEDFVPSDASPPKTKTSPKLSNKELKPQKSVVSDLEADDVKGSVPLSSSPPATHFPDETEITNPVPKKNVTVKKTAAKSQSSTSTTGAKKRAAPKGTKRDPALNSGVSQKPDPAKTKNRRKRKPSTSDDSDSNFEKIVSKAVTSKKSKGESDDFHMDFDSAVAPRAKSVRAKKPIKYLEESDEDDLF
Description: Human Topoisomerase IIα-mediated relaxation assays and decatenation assays were performed as per the manufacturer's instructions in a total of 20 μL. Relaxation assays contained Topoisomerase IIα (4.3 nM), 50 mM Tris.HCl pH 8,120 mM KCl, 10 mM MgCl2, 0.5 mM DTT, 0.5 mM ATP, 4.6 nM of supercoiled pBR322 DNA, and inhibitor where appropriate. Decatenation assays substituted the supercoiled DNA with 200 ng catenated kinetoplast DNA.
All in vitro reactions were incubated at 37° C. for 30 minutes. The DMSO concentration in each reaction was kept constant at 3.33%. Reactions were quenched with the addition of an equal volume of phenol/chloroform/isoamyl alcohol (25:24:1) and one tenth volume of loading buffer containing 40% sucrose, 100 mM Tris.HCl pH 7.5, 100 mM EDTA, 2 mg/mL bromophenol blue. The proteins were precipitated by vortexing, followed by centrifugation for 5 minutes at 16 000 g. The aqueous phase was loaded onto 1% agarose gels in Tris-acetate and were electrophoresed at 60 V for three hours in Tris-acetate buffer. The gels were stained in 1 μg/mL ethidium bromide. The gels were visualised using UV light and were documented and analysed using Syngene software.

[13] = target: T1, E. coli DNA gyrase A2B2, MG1655 wild type (Escherichia coli, UniProt P0AES4+P0AES6); format: biochemical
Description: ATP hydrolysis by DNA gyrase was linked to the oxidation of NADH using a pyruvate Kinase (PK)/lactate dehydrogenase (LDH) coupled enzyme assay and measured at 340 nm on a Spectramax Plus Microplate. […] DMSO was kept constant at 2%.
Experimental data were fitted and treated with the following equation:
where L represents the inhibitor concentration, v represents the rate of the ATPase reaction, and v0 represents the rate in absence of inhibitor. The IC50 is deduced from the equation 2:

[14] = target: E. coli DNA gyrase A2B2, W751R mutant (Trp751→Arg in DNA gyrase B subunit) (Escherichia coli, UniProt P0AES4+P0AES6, W751R); details: FIG. 18
Description: ATP hydrolysis by DNA gyrase was linked to the oxidation of NADH using a pyruvate Kinase (PK)/lactate dehydrogenase (LDH) coupled enzyme assay and measured at 340 nm on a Spectramax Plus Microplate. The ATPase assay was similar to that described previously by Pierrat & Maxwell, 2005. Each 100 μL reaction contained 50 mM Tris.HCl (pH 7.5), 24 mM KCl, 5 mM MgCl2, 6.5% (w/w) glycerol, 4 mM dithiotreitol, 0.4 mM NADH, 0.8 mM phosphorenol-pyruvate, 1% (w/w) PK/LDH mixture (Sigma), 51 nM-153 nM gyrase enzyme and the drug tested at varying concentrations. DMSO was kept constant at 2%. The reactions were measured in the presence or absence of linear DNA pBR322 at fixed concentration of 8.4 nM. Reactions were initiated by the addition of 10 mM Mg.ATP and measured at 25° C. over 1.5 hours.
DNA-dependent ATPase reactions were tested with the wild type enzyme A2B2 and the W751R mutant enzyme. In these DNA-dependent ATPase assays, the concentration of wild type A2B2 is 51 nM, the concentration of W751R mutant enzyme is 106 nM.

[15] = target: T1, E. coli DNA gyrase A2B2, MG1655 wild type; details: Flatman et al., 2004; cited from earlier work
[16] = target: T2, E. coli DNA gyrase A2B2, wild type (Escherichia coli, UniProt P0AES4+P0AES6); details: Flatman et al., 2004; cited from earlier work
[17] = target: T2, E. coli DNA gyrase A2B2, wild type; details: Flatman et al., 2004; cited from earlier work; remark: listed apart in the source
[18] = target: T1, E. coli DNA gyrase A2B2, MG1655 wild type; details: Flatman et al., 2004; cited from earlier work; remark: listed apart in the source

C[C@H](NC(=O)CNC(=O)CNC(=O)c1c[nH]c(CNC(=O)[C@H](C)NC(=O)CNC(=O)[C@@H](N)CCC(N)=O)c1)C(=O)O [Peptide 2] (H-QGA[X2]GGA-OH)
Effect on 4-week old plants ([1]; 200 μM): induced tumourous, undifferentiated cell growth in the meristematic region and petioles
effect on 6-week old seedlings ([1]; observed at 150 μM (FIG. 26)): induces tumour-like growth near the apical meristem zone
supercoiling activity relative to Peptide 1 ([2]; FIG. 13): about half as active as Peptide 1
IC50 ([2]; Supercoiling (IC50 μM) MG 1655 A2B2, Table 4): > 100 µM
stabilisation of the cleaved DNA-enzyme (cleavage) complex ([3]; Peptide 1 at 100 μM, [A2B2]=30 nM, up to 1 h): Neither Peptide 1 nor Peptide 2 stabilise
Cleavage (IC50 μM) ([3]; Table 4): inactive
solubility [4]: 1000 µM (≈ 582 µg/mL)
Inhibition of seed germination [5]: able to inhibit germination of the seeds
effect on seed germination ([6]; 100 μM): only a bleaching effect
effect on seed germination ([6]; 150 μM): seed germination occurred but the growth is slower compared with the untreated seeds
effects on 6-week old seedlings and germinating seeds ([6]; 200 μM): the same as the effects observed for 100 μM Peptide 1
activity against seed germination ([6]; concentrations tested): able to inhibit germination
potency relative to Peptide 1 in plant assays ([6]; in vivo): half the potency of Peptide 1
effect on 4-week old plants transferred to media containing the compound ([7]; 100 μM Peptide 1, 200 μM Peptide 2): induced tumourous, undifferentiated cell growth
effect on 6-week old seedlings ([7]; in vivo): induces tumour-like growth
haloassay activity relative to Peptide 1 [8]: twice less active than Peptide 1
IC50 [9]: > 100 µM
concentration at which the relaxation reaction is inhibited ([9]; A2B2 70 nM, MccB17 tested at 25 μM): 200 µM

NCc1nc(C(=O)O)cs1 [deBoc-thiazole]
IC50 [10]: ~15 µM
IC50 [11]: ~75 µM
IC50 of deBoc-thiazole compared with thiazole compound [12]: no difference to the calculated IC50 values

O=C(O)c1cn(C2CC2)c2cc(N3CCNCC3)c(F)cc2c1=O [Ciprofloxacin]
Inhibition of DNA-dependent ATPase [13]: slow down this ATPase hydrolysis rate of both wild type and mutant enzyme
DNA-dependent ATPase, W751R mutant (novobiocin, ciprofloxacin) [14]: slow down this ATPase hydrolysis rate of both wild type and mutant enzyme

CC(=O)O[C@@H]1[C@@H](C)O[C@@H](c2ccc3c(c2O)[C@@H](O)[C@]24O[C@@]2(C3=O)[C@@]2(O)C(=O)C=C(C)C[C@@]2(O)C[C@@H]4O)C[C@H]1OC(=O)/C=C/C=C/C=C/C=C/C(=O)Nc1c(O)c2ccc(O)c(Cl)c2oc1=O [simocyclinone D8]
Inhibition of supercoiling reaction [15]: inhibits the supercoiling and relaxation reactions
Inhibition of relaxation reaction [16]: inhibits the supercoiling and relaxation reactions
Cleavage complex formation / quinolone cleavage [17]: does not stimulate the gyrase-dependent cleavage complex formation but antagonizes quinolone cleavage
Inhibition of ATPase reaction [18]: not the ATPase reaction
